16 compounds from patent publication US20260327191A1, “GSK3a INHIBITORS AND METHODS OF USE THEREOF” (Blueprint Medicines Corporation, priority 2023, published 2026) can be followed below.

The target in one experiment is T1, GSK3A (Homo sapiens, UniProt P49840).
T1 construct: expressed in transfected cells
Briefly: NanoBRET cellular target engagement assay, Nanoluc-GSK3A in HEK293 cells. Format: cell-based. The following applies: NanoBRET GSK3α IC50, HEK293 cells, tracer K-8, 2 hours, 37° C.

The target of another experiment is T2, human GSK3α (Homo sapiens, UniProt P49840).
T2 construct: Full length human GSK3α or GSK3B expressed as N-terminal GST fusion proteins; GST (N); purchased Carna Biosciences (Japan); host or cells: baculovirus host
T2 sequence (P49840 whole entry, the tested form may be a part): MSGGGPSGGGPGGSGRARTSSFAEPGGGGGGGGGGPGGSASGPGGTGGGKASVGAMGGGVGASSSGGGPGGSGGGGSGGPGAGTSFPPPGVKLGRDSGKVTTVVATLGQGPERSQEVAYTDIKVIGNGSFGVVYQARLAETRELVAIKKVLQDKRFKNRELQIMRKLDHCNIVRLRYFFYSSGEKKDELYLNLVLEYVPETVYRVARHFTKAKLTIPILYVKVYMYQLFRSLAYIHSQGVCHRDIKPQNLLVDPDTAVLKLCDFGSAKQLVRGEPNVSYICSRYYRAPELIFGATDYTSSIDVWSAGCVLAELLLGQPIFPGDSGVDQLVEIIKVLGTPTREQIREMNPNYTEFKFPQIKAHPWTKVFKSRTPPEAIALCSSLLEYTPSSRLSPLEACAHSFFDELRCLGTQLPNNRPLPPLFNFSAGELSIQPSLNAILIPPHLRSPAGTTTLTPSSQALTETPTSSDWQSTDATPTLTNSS
Briefly: In vitro enzymatic activity assay, GSK3α. Format: biochemical. The settings on record: 1.0 mM ATP, 1.0 μM peptide substrate, 120 min, 25° C.

Experiment [1] deals with T3, GSK3B (Homo sapiens, UniProt P49841). Briefly: In vitro enzymatic activity assay, GSK3β. Format: biochemical. On the set-up: Full length human GSK3α or GSK3B expressed as N-terminal GST fusion proteins; GST (N); purchased Carna Biosciences (Japan); host or cells: baculovirus host. The following applies: 1.0 mM ATP, 1.0 μM peptide substrate, 120 min, 25° C.
T3 sequence (P49841 whole entry, the tested form may be a part): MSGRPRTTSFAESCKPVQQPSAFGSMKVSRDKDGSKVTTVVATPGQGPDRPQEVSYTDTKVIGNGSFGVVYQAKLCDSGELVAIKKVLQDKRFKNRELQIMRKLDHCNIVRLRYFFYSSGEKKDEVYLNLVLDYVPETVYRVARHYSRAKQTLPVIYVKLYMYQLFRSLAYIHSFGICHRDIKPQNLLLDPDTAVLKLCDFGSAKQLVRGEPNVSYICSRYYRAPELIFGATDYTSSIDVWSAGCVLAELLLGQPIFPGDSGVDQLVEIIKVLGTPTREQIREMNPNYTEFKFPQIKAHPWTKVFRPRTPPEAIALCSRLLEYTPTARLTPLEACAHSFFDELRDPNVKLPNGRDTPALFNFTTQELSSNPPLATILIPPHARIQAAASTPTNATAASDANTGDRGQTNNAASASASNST
In experiment [2] the target is T3, GSK3B. Kind of experiment: NanoBRET cellular target engagement assay, Nanoluc-GSK3B in HEK293 cells. Format: cell-based. The following applies: NanoBRET GSK3β IC50, HEK293 cells, tracer K-8, 2 hours, 37° C. On the set-up: expressed in transfected cells. For orientation: Bioluminescence resonance energy transfer reports proximity on the nanometre scale.

SMILES strings stand for the structures. Read-outs that look alike come from different tables or passages of the source.

T1 sequence (P49840 whole entry): as the sequence (P49840 whole entry, the tested form may be a part) above

Take `CNCc1cncc(NC(=O)c2c(N)ncn(-c3c(Cl)cc(C(F)CF)cc3Cl)c2=O)c1` (single isomer, unassigned) [Example 116, (R)-4-amino-1-(2,6-dichloro-4-(1,2-difluoroethyl)phenyl)-N-(5-((methylamino)methyl)pyridin-3-yl)-6-oxo-1,6-dihydropyrimidine-5-carboxamide or (S)-4-amino-1-(2,6-dichloro-4-(1,2-difluoroethyl)phenyl)-N-(5-((methylamino)methyl)pyridin-3-yl)-6-oxo-1,6-dihydropyrimidine-5-carboxamide]: the IC50 (in general, the concentration at which inhibition is half-maximal) at GSK3A was found to be 1.8 nM; on human GSK3α (read-out: Enzyme GSK3α (IC50)) it was 2.9 nM; at GSK3B [1] (read-out: Enzyme GSK3β (IC50)), 125 nM; against GSK3B [2], 101 nM.
As for `Cc1cc(CC(F)F)cc(C)c1-n1cnc(N)c(C(=O)Nc2cncc(C(C)N)c2)c1=O` (single isomer, unassigned) [Example 144, (R)-4-amino-N-(5-(1-aminoethyl)pyridin-3-yl)-1-(4-(2,2-difluoroethyl)-2,6-dimethylphenyl)-6-oxo-1,6-dihydropyrimidine-5-carboxamide or (S)-4-amino-N-(5-(1-aminoethyl)pyridin-3-yl)-1-(4-(2,2-difluoroethyl)-2,6-dimethylphenyl)-6-oxo-1,6-dihydropyrimidine-5-carboxamide], the half-maximal inhibitory concentration (IC50) against GSK3A was found to be 5 nM; at human GSK3α (read-out: Enzyme GSK3α (IC50)), 11 nM; on GSK3B [1] (read-out: Enzyme GSK3β (IC50)) it was 472 nM; at GSK3B [2] it was 375 nM.
Taken in the same sequence, the figures for `CCOC[C@@H](N)c1cncc(NC(=O)c2c(N)ncn(-c3c(C)cc(COC)cc3C)c2=O)c1` (single isomer, unassigned) [Example 177, (S)-4-amino-N-(5-(1-amino-2-ethoxyethyl)pyridin-3-yl)-1-(4-(methoxymethyl)-2,6-dimethylphenyl)-6-oxo-1,6-dihydropyrimidine-5-carboxamide or (R)-4-amino-N-(5-(1-amino-2-ethoxyethyl)pyridin-3-yl)-1-(4-(methoxymethyl)-2,6-dimethylphenyl)-6-oxo-1,6-dihydropyrimidine-5-carboxamide] were 2.8 nM, 4 nM, 200 nM and 283 nM.
On the same counts, the results for `CCNCc1cncc(NC(=O)c2c(N)ncn(-c3c(Cl)cc(COC)cc3Cl)c2=O)c1` [Example 60, 4-amino-1-(2,6-dichloro-4-(methoxymethyl)phenyl)-N-(5-((ethylamino)methyl)pyridin-3-yl)-6-oxo-1,6-dihydropyrimidine-5-carboxamide] are 3 nM, 6.5 nM, 334 nM and 200 nM.
In the case of `Nc1ncn(-c2c(O)cccc2Cl)c(=O)c1C(=O)Nc1cncc([C@@H]2CCCCN2)c1` [Example 173, (S)-4-amino-1-(2-chloro-6-hydroxyphenyl)-6-oxo-N-(5-(piperidin-2-yl)pyridin-3-yl)-1,6-dihydropyrimidine-5-carboxamide], the 50% inhibitory concentration (IC50) was determined as 1510 nM against GSK3A, 1880 nM on human GSK3α (Enzyme GSK3α (IC50)), 10000 nM against GSK3B [1] (Enzyme GSK3β (IC50)) and 25000 nM against GSK3B [2].
With `CCOc1cc(C)c(-n2cnc(N)c(C(=O)Nc3cncc(C4CCCCCN4)c3)c2=O)c(C)c1` (single isomer, unassigned) [Example 95, (R)-4-amino-N-(5-(azepan-2-yl)pyridin-3-yl)-1-(4-ethoxy-2,6-dimethylphenyl)-6-oxo-1,6-dihydropyrimidine-5-carboxamide or (S)-4-amino-N-(5-(azepan-2-yl)pyridin-3-yl)-1-(4-ethoxy-2,6-dimethylphenyl)-6-oxo-1,6-dihydropyrimidine-5-carboxamide], the IC50 stood at 4.3 nM at GSK3A, 9.8 nM on human GSK3α (read-out: Enzyme GSK3α (IC50)), 465 nM on GSK3B [1] (read-out: Enzyme GSK3β (IC50)) and 290 nM against GSK3B [2].
On the same counts, the results for `Nc1ncn(-c2c(Cl)cccc2Cl)c(=O)c1C(=O)Nc1cccc([C@@H]2CNC(=O)CN2)c1` (single isomer, unassigned) [Example 189, (R)-4-amino-1-(2,6-dichlorophenyl)-6-oxo-N-(3-(5-oxopiperazin-2-yl)phenyl)-1,6-dihydropyrimidine-5-carboxamide or (S)-4-amino-1-(2,6-dichlorophenyl)-6-oxo-N-(3-(5-oxopiperazin-2-yl)phenyl)-1,6-dihydropyrimidine-5-carboxamide] are 69.4 nM, 133 nM, 2160 nM and 4580 nM.
On the same counts, the results for `Nc1ncn(-c2c(Cl)cccc2Cl)c(=O)c1C(=O)Nc1cccc(C2CCCN2)c1F` (single isomer, unassigned) [Example 168, (S)-4-amino-1-(2,6-dichlorophenyl)-N-(2-fluoro-3-(pyrrolidin-2-yl)phenyl)-6-oxo-1,6-dihydropyrimidine-5-carboxamide or (R)-4-amino-1-(2,6-dichlorophenyl)-N-(2-fluoro-3-(pyrrolidin-2-yl)phenyl)-6-oxo-1,6-dihydropyrimidine-5-carboxamide] are 27.1 nM, 49.3 nM, 1530 nM and 1470 nM.
Taken in the same sequence, the figures for `COCc1cc(Cl)c(-n2cnc(N)c(C(=O)Nc3cncc(C(C)(C)N)c3)c2=O)c(Cl)c1` [Example 15, 4-amino-N-(5-(2-aminopropan-2-yl)pyridin-3-yl)-1-(2,6-dichloro-4-(methoxymethyl)phenyl)-6-oxo-1,6-dihydropyrimidine-5-carboxamide] were 2.2 nM, 4.5 nM, 208 nM and 119 nM.
As to `CO[C@H](C)c1cc(C)c(-n2cnc(N)c(C(=O)Nc3cncc([C@@H](C)N)c3)c2=O)c(C)c1` (single isomer, unassigned) [Example 175], the IC50 at GSK3A amounted to 8.1 nM; at human GSK3α (read-out: Enzyme GSK3α (IC50)) it was 32.6 nM; at GSK3B [1] (read-out: Enzyme GSK3β (IC50)) it was 803 nM; at GSK3B [2], 581 nM.
With `CCOc1cc(Cl)c(-n2cnc(N)c(C(=O)Nc3cncc(C(N)CC(F)F)c3)c2=O)c(Cl)c1` (single isomer, unassigned) [Example 143, (R)-4-amino-N-(5-(1-amino-3,3-difluoropropyl)pyridin-3-yl)-1-(2,6-dichloro-4-ethoxyphenyl)-6-oxo-1,6-dihydropyrimidine-5-carboxamide or (S)-4-amino-N-(5-(1-amino-3,3-difluoropropyl)pyridin-3-yl)-1-(2,6-dichloro-4-ethoxyphenyl)-6-oxo-1,6-dihydropyrimidine-5-carboxamide], the IC50 against GSK3A was determined as 4.1 nM; on human GSK3α (read-out: Enzyme GSK3α (IC50)), 4.9 nM; at GSK3B [1] (read-out: Enzyme GSK3β (IC50)) it was 207 nM; against GSK3B [2], 280 nM.
On the same counts, the results for `CCNCc1cncc(NC(=O)c2c(N)ncn(-c3c(Cl)cc(OC)cc3Cl)c2=O)c1` [Example 17, 4-amino-1-(2,6-dichloro-4-methoxyphenyl)-N-(5-((ethylamino)methyl)pyridin-3-yl)-6-oxo-1,6-dihydropyrimidine-5-carboxamide] are 3.8 nM, 7.8 nM, 340 nM and 271 nM.
For `Nc1ncn(-c2c(Cl)cc(C(F)(F)F)cc2Cl)c(=O)c1C(=O)Nc1cncc([C@@H]2CCCN2)c1` [Example 118, (S)-4-amino-1-(2,6-dichloro-4-(trifluoromethyl)phenyl)-6-oxo-N-(5-(pyrrolidin-2-yl)pyridin-3-yl)-1,6-dihydropyrimidine-5-carboxamide], the concentration for half-maximal inhibition (IC50) against GSK3A came to 9.4 nM; on human GSK3α (read-out: Enzyme GSK3α (IC50)), 11.2 nM; on GSK3B [1] (read-out: Enzyme GSK3β (IC50)), 450 nM; against GSK3B [2] it was 566 nM.
On the same counts, the results for `CCOc1cc(C)c(-n2cnc(N)c(C(=O)Nc3cccc([C@@H](C)NC)c3)c2=O)c(Cl)c1` (atropisomer, axis not shown) [Example 71, (R)-4-amino-1-((S)-2-chloro-4-ethoxy-6-methylphenyl)-N-(3-(1-(methylamino)ethyl)phenyl)-6-oxo-1,6-dihydropyrimidine-5-carboxamide] are 4.8 nM, 6.3 nM, 383 nM and 353 nM.
Taken in the same sequence, the figures for `Cc1cc(C(F)(F)F)cc(C)c1-n1cnc(N)c(C(=O)Nc2cncc([C@H]3CCCCN3)c2)c1=O` [Example 216, (R)-4-amino-1-(2,6-dimethyl-4-(trifluoromethyl)phenyl)-6-oxo-N-(5-(piperidin-2-yl)pyridin-3-yl)-1,6-dihydropyrimidine-5-carboxamide] were 3.4 nM, 5.6 nM, 293 nM and 173 nM.
Consider `COc1cc(Cl)c(-n2cnc(N)c(C(=O)Nc3cncc(C(N)CC(F)F)c3)c2=O)c(Cl)c1` (single isomer, unassigned) [Example 85, (R)-4-amino-N-(5-(1-amino-3,3-difluoropropyl)pyridin-3-yl)-1-(2,6-dichloro-4-methoxyphenyl)-6-oxo-1,6-dihydropyrimidine-5-carboxamide or (S)-4-amino-N-(5-(1-amino-3,3-difluoropropyl)pyridin-3-yl)-1-(2,6-dichloro-4-methoxyphenyl)-6-oxo-1,6-dihydropyrimidine-5-carboxamide], for which the IC50 came to 4.2 nM against GSK3A, 9.4 nM on human GSK3α (read-out: Enzyme GSK3α (IC50)), 551 nM at GSK3B [1] (read-out: Enzyme GSK3β (IC50)) and 374 nM against GSK3B [2].
